What all share (assay): relative viability (nuclei count vs DMSO), 5 days (fraction); higher = more cells survive
Compound in the assay “Omipalisib + Palbociclib”: COc1ncc(-c2ccc3nccc(-c4ccnnc4)c3c2)cc1NS(=O)(=O)c1ccc(F)cc1F [Omipalisib] + CC(=O)c1c(C)c2cnc(Nc3ccc(N4CCNCC4)cn3)nc2n(C2CCCC2)c1=O [Palbociclib] (partner 0.5 µM)
In outline:
(§1)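 Five library-drug doses in √10 steps were combined with a fixed anchor-drug dose, or a single drug was given alone, by pin tool to lung cancer cell lines in 1536-well plates the day after seeding. Nuclei were stained and counted after 5 days. Relative viability is the nuclei count in treated wells over that in vehicle wells, taken as the median of duplicate plates.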

Compound in the assay “Omipalisib + Luminespib”: COc1ncc(-c2ccc3nccc(-c4ccnnc4)c3c2)cc1NS(=O)(=O)c1ccc(F)cc1F [Omipalisib] + CCNC(=O)c1noc(-c2cc(C(C)C)c(O)cc2O)c1-c1ccc(CN2CCOCC2)cc1 [Luminespib] (partner 0.01 µM)
In outline:
as §1

Compound in the assay “Omipalisib + Pictilisib”: COc1ncc(-c2ccc3nccc(-c4ccnnc4)c3c2)cc1NS(=O)(=O)c1ccc(F)cc1F [Omipalisib] + CS(=O)(=O)N1CCN(Cc2cc3nc(-c4cccc5[nH]ncc45)nc(N4CCOCC4)c3s2)CC1 [Pictilisib] (partner 1 µM)
In outline:
as §1

Compound in the assay “Omipalisib + Dasatinib”: COc1ncc(-c2ccc3nccc(-c4ccnnc4)c3c2)cc1NS(=O)(=O)c1ccc(F)cc1F [Omipalisib] + Cc1nc(Nc2ncc(C(=O)Nc3c(C)cccc3Cl)s2)cc(N2CCN(CCO)CC2)n1 [Dasatinib] (partner 0.075 µM)
In outline: as §1

Compound in the assay “Omipalisib + Phenformin”: COc1ncc(-c2ccc3nccc(-c4ccnnc4)c3c2)cc1NS(=O)(=O)c1ccc(F)cc1F [Omipalisib] + N=C(N)NC(=N)NCCc1ccccc1 [Phenformin] (partner 250 µM)
In short, it runs like this:
as §1

Compound in the assay “Omipalisib + Vorinostat”: COc1ncc(-c2ccc3nccc(-c4ccnnc4)c3c2)cc1NS(=O)(=O)c1ccc(F)cc1F [Omipalisib] + O=C(CCCCCCC(=O)Nc1ccccc1)NO [Vorinostat] (partner 1 µM)
In outline:
as §1

The values below come from the supplement of paper PMC10307832.

Consider NCI-H647, for which the relative viability with Omipalisib + Palbociclib (first compound 0.0003 µM) was 0.263; in the assay with Omipalisib + Palbociclib (first compound 0.003 µM), 0.21; with Omipalisib + Palbociclib (first compound 0.03 µM), 0.179; with Omipalisib + Luminespib (first compound 0.0003 µM), 0.233; with Omipalisib + Luminespib (first compound 0.003 µM), 0.16; with Omipalisib + Luminespib (first compound 0.03 µM) it was 0.13. In addition, the relative viability in the assay with Omipalisib + Pictilisib (first compound 0.0003 µM) was 0.462; with Omipalisib + Pictilisib (first compound 0.003 µM) it was 0.307; in the assay with Omipalisib + Pictilisib (first compound 0.03 µM) it was 0.386; with Omipalisib + Dasatinib (first compound 0.0003 µM), 0.162; with Omipalisib + Dasatinib (first compound 0.003 µM), 0.0952; with Omipalisib + Dasatinib (first compound 0.03 µM), 0.0677. The relative viability was 0.402 with Omipalisib + Phenformin (first compound 0.0003 µM); 0.267 in the assay with Omipalisib + Phenformin (first compound 0.003 µM); 0.185 with Omipalisib + Phenformin (first compound 0.03 µM); 0.304 in the assay with Omipalisib + Vorinostat (first compound 0.0003 µM); 0.368 with Omipalisib + Vorinostat (first compound 0.003 µM); 0.295 in the assay with Omipalisib + Vorinostat (first compound 0.03 µM).

Consider NCI-H1734, for which the relative viability with Omipalisib + Palbociclib (first compound 0.0003 µM) was determined as 0.278; with Omipalisib + Palbociclib (first compound 0.003 µM) it was 0.238; with Omipalisib + Palbociclib (first compound 0.03 µM), 0.205; with Omipalisib + Luminespib (first compound 0.0003 µM), 0.208; with Omipalisib + Luminespib (first compound 0.003 µM) it was 0.203; in the assay with Omipalisib + Luminespib (first compound 0.03 µM), 0.171. The relative viability in the assay with Omipalisib + Pictilisib (first compound 0.0003 µM) was determined as 0.461; with Omipalisib + Pictilisib (first compound 0.003 µM) it was 0.307; in the assay with Omipalisib + Pictilisib (first compound 0.03 µM), 0.389; with Omipalisib + Dasatinib (first compound 0.0003 µM), 0.396; in the assay with Omipalisib + Dasatinib (first compound 0.003 µM) it was 0.243; in the assay with Omipalisib + Dasatinib (first compound 0.03 µM), 0.194. The relative viability with Omipalisib + Phenformin (first compound 0.0003 µM) is 0.341; with Omipalisib + Phenformin (first compound 0.003 µM), 0.265; with Omipalisib + Phenformin (first compound 0.03 µM), 0.183; with Omipalisib + Vorinostat (first compound 0.0003 µM) it was 0.683; with Omipalisib + Vorinostat (first compound 0.003 µM), 0.466; with Omipalisib + Vorinostat (first compound 0.03 µM), 0.35.
